Assays:
Assay type in all cases: cell-based, mouse
Conditions in all cases: 1 week-old, after 1 week of stress treatment, SLO 10 μg/mL, ATP 2.4 mM, Ca 2 mM CaCl2
Muscle somatic cells = assay: Percent of cells demonstrating pluripotent phenotype after stress treatment, muscle cells
Text: (§1) Stress alteration of mature somatic cells procured from various adult tissues. To examine whether ACCs could be generated not only mature lymphocytes but also other types of somatic cells, brain, skin, muscle, fat, bone marrow, lung and liver were harvested from Oct4-GFP (GOF) mice^8. Cells were isolated from the tissue samples, dissociated into single cells, and treated with different physical and or chemical stress conditions. The efficiency of the process to alter the cells differed as a function of both the source of cells and the stress condition(s) to which the cells were exposed (FIG. 7A). The ability of stress to alter mature cells to express Oct4, differed depending on the derivation of cells, but stress was able to alter cells to express Oct4 to some degree in mature cells derived from all three germ layers (FIG. 7A). ACC colonies derived from any mature tissue expressed pluripotent markers, E-cadherin, Nanog, PCAM-1 and AP (data not shown), and ES specific marker genes (FIG. 7B). Significant physical and chemical stresses altered mature somatic cells to revert to a stem cell state, despite of the source of tissues and derivation of the germ layers.
(§2) Exposure to external stimuli—stress treatment. […]
(§3) Fluorescence-Activated Cell Sorting and Flow Cytometry. […] Cells were sorted on a BD FACSAria SORP and analyzed on a BD LSRII with BD FACSDiva Software (BD Biosciences).

[1] = tested on: Bone Marrow somatic cells; assay: Percent of cells demonstrating pluripotent phenotype after stress treatment, bone marrow cells
Text: as §1, §2, §3

Lung somatic cells = assay: Percent of cells demonstrating pluripotent phenotype after stress treatment, lung cells
Text: as §1, §2, §3

Brain somatic cells = assay: Percent of cells demonstrating pluripotent phenotype after stress treatment, brain cells
Fibroblast = assay: Percent of cells demonstrating pluripotent phenotype after stress treatment, fibroblasts
Text: as §1, §2, §3

Fat somatic cells = assay: Percent of cells demonstrating pluripotent phenotype after stress treatment, fat cells
Text: as §1, §2, §3

Question: streptolysin O [SLO] was tested. Which “Percent of cells demonstrating pluripotent phenotype” value (shortened to “Percent”) (Muscle somatic cells) did it give?
Answer: Its value is 20.5%.

Question: What about the “Percent” value [1] of the same substance?
Answer: The value was 13.2%.

Question: What about the “Percent” value (Lung somatic cells) of the same substance?
Answer: Its value is 18.4%.

Question: And the “Percent” value (Brain somatic cells)?
Answer: Its value is 10.3%.

Question: What about the “Percent” value (Fibroblast) of the same substance?
Answer: The value was 15.2%.

Question: What about the “Percent” value (Fat somatic cells) of the same substance?
Answer: The value was 32.8%.
